In PubChem BioAssay AID248 (DTP/NCI, 2004):
Several values for one entry are separate records, joined by “and”; a condition that tells them apart may be missing. Equal values may be shown once. Inconclusive results and toxic doses are left out. Rule as the data show it: active = T/C of 150% or more; inactive = T/C below 125%.

Tested on: L1210 leukemia ip in BDF1 mice, survival T/C
Test: NCI In Vivo Anticancer Drug Screen. Data for tumor model L1210 Leukemia (intraperitoneal) in B6D2F1 (BDF1) mice
Settings: endpoint: mean survival time, higher = longer survival
Method in brief: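 Transplanted-tumor mice were given test agent; controls received vehicle only. Survival readings from the two groups were divided (treated over control).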

[1] = dose: 100.0 mg/kg/injection, schedule: Q01DX001 (ip), vehicle: saline
[2] = dose: 200.0 mg/kg/injection, schedule: Q01DX001 (ip), vehicle: saline
[3] = dose: 400.0 mg/kg/injection, schedule: Q01DX001 (ip), vehicle: saline
[4] = dose: 100.0 mg/kg/injection, schedule: Q01DX009 (ip), vehicle: water
[5] = dose: 200.0 mg/kg/injection, schedule: Q01DX009 (ip), vehicle: water

Measured: T/C

CCCSc1ncnc2c1nc(C)n2CO
inactive: [1] 114 % of control | [2] 114 % of control | [3] 121 % of control

CCN(C(=O)Nc1ccc([N+](=O)[O-])cc1OC)c1cccc(C)c1
inactive: dose: 100.0 mg/kg/injection, schedule: Q01DX009 (ip), vehicle: Klucel (hydroxypropylcellulose) (HPC) 94 % of control | dose: 200.0 mg/kg/injection, schedule: Q01DX009 (ip), vehicle: Klucel (hydroxypropylcellulose) (HPC) 97 % of control | dose: 400.0 mg/kg/injection, schedule: Q01DX009 (ip), vehicle: Klucel (hydroxypropylcellulose) (HPC) 100 % of control

CC(=O)NCc1ccc(N)cc1
inactive: dose: 12.5 mg/kg/injection, schedule: Q01DX009 (ip), vehicle: water 114 % of control | dose: 25.0 mg/kg/injection, schedule: Q01DX009 (ip), vehicle: water 112 % of control | dose: 50.0 mg/kg/injection, schedule: Q01DX009 (ip), vehicle: water 114 % of control | [4] 120 % of control | [5] 116 % of control

Cc1cc(=O)c2cc(N)ccc2[nH]1
inactive: [4] 98 % of control | dose: 100.0 mg/kg/injection, schedule: Q04DX003 (ip), vehicle: water 107 % of control | [5] 98 % of control | dose: 200.0 mg/kg/injection, schedule: Q04DX003 (ip), vehicle: water 113 % of control | dose: 400.0 mg/kg/injection, schedule: Q01DX009 (ip), vehicle: water 94 % of control | dose: 400.0 mg/kg/injection, schedule: Q04DX003 (ip), vehicle: water 116 % of control

Cc1cc(/C=C/c2ccc3cc(N(C)C)ccc3[n+]2C)c(C)n1-c1ccccc1
inactive: dose: 1.56 mg/kg/injection, schedule: Q01DX009 (ip), vehicle: saline with Tween-80 112 % of control

COC1OC(CNC(=O)N(C)N=O)C(O)C(O)C1O (stereo not given)
inactive: dose: 100.0 mg/kg/injection, schedule: Q04DX003 (ip), vehicle: saline 115 % of control | dose: 115.0 mg/kg/injection, schedule: Q04DX003 (ip), vehicle: saline 116 % of control | dose: 132.0 mg/kg/injection, schedule: Q04DX003 (ip), vehicle: saline 120 % of control
active: dose: 200.0 mg/kg/injection, schedule: Q01DX009 (ip), vehicle: saline 150 % of control and 170 % of control | dose: 300.0 mg/kg/injection, schedule: Q01DX009 (ip), vehicle: saline 173 % of control | dose: 400.0 mg/kg/injection, schedule: Q01DX009 (ip), vehicle: saline 166 % of control | dose: 400.0 mg/kg/injection, schedule: Q04DX003 (ip), vehicle: saline 150 % of control and 160 % of control

CCC(C)OP(=S)(S)OC(C)CC (stereo not given) (tested in a mixture with another compound)
inactive: dose: 100.0 mg/kg/injection, schedule: Q04DX002 (ip), vehicle: saline 96 % of control | dose: 200.0 mg/kg/injection, schedule: Q04DX002 (ip), vehicle: saline 99 % of control | dose: 400.0 mg/kg/injection, schedule: Q04DX002 (ip), vehicle: saline 96 % of control

CC(=O)c1cccc(OC(=O)c2ccccc2)c1
inactive: dose: 50.0 mg/kg/injection, schedule: Q01DX001 (ip), vehicle: saline 112 % of control | [1] 106 % of control | [2] 104 % of control | [3] 104 % of control

CCCCCCCCCCCCCCCCC(/C=N/N=C(N)N)=N\N=C(N)N
inactive: dose: 15.0 mg/kg/injection, schedule: Q01DX Z (ip), vehicle: methylcellulose (MC) 95 % of control | dose: 30.0 mg/kg/injection, schedule: Q01DX Z (ip), vehicle: methylcellulose (MC) 98 % of control | dose: 60.0 mg/kg/injection, schedule: Q01DX Z (ip), vehicle: methylcellulose (MC) 110 % of control | dose: 120.0 mg/kg/injection, schedule: Q01DX Z (ip), vehicle: methylcellulose (MC) 103 % of control | dose: 240.0 mg/kg/injection, schedule: Q01DX Z (ip), vehicle: methylcellulose (MC) 101 % of control | dose: 360.0 mg/kg/injection, schedule: Q01DX Z (ip), vehicle: methylcellulose (MC) 97 % of control | dose: 480.0 mg/kg/injection, schedule: Q01DX Z (ip), vehicle: methylcellulose (MC) 98 % of control | dose: 720.0 mg/kg/injection, schedule: Q01DX Z (oral), vehicle: methylcellulose (MC) 97 % of control | dose: 960.0 mg/kg/injection, schedule: Q01DX Z (oral), vehicle: methylcellulose (MC) 93 % of control

CCCC1=NNC(=O)C1(Br)Br
inactive: dose: 10.0 mg/kg/injection, schedule: Q01DX001 (ip), vehicle: carboxymethylcellulose (CMC) 97 % of control | dose: 20.0 mg/kg/injection, schedule: Q01DX001 (ip), vehicle: carboxymethylcellulose (CMC) 91 % of control | dose: 40.0 mg/kg/injection, schedule: Q01DX001 (ip), vehicle: carboxymethylcellulose (CMC) 92 % of control | dose: 80.0 mg/kg/injection, schedule: Q01DX001 (ip), vehicle: carboxymethylcellulose (CMC) 97 % of control
